According to patent US8952024B2, “Herbicidal pyrimidone derivatives” (E I du Pont de Nemours and Company, priority 2009, dated 2015):

How the values were obtained:
Test in all cases: Test B pre-/postemergence plant response
Format in all cases: in vivo
[1] = system: Italian ryegrass (Lolium multiflorum); conditions: for Plant response rating, Ryegrass, Italian: Postemergence, scale 0 to 100 (0 no effect, 100 complete control)
Method in brief: (§1)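 Seeds were sown in loam soil/sand blend and treated preemergence with compound in non-phytotoxic solvent mixture containing surfactant; postemergence sprays, same formulation, went onto plants 2 to 18 cm (1- to 4-leaf stage) in peat-based planting medium. Greenhouse 13 to 15 days, then visual rating versus untreated controls, 0 (no effect) to 100 (complete control).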

[2] = system: Surinam grass (Brachiaria decumbens); conditions: for Plant response rating, Surinam Grass: Postemergence, scale 0 to 100 (0 no effect, 100 complete control)
Method in brief: as §1

[3] = system: blackgrass (Alopecurus myosuroides)
Method in brief: as §1

corn (Zea mays) = system: corn (Zea mays)
Method in brief: as §1

[4] = system: downy bromegrass (Bromus tectorum)
Method in brief: as §1

[5] = system: goosegrass (Eleusine indica)
Method in brief: as §1

[6] = system: johnsongrass (Sorghum halepense)
Method in brief: as §1

kochia (Kochia scoparia) = system: kochia (Kochia scoparia)
Method in brief: as §1

[7] = system: lambsquarters (Chenopodium album)
Method in brief: as §1

[8] = system: large crabgrass (Digitaria sanguinalis)
Method in brief: as §1

[9] = system: pigweed (Amaranthus retroflexus)
Method in brief: as §1

[10] = system: ragweed (common ragweed, Ambrosia elatior); conditions: for Plant response rating, Ragweed: Postemergence, scale 0 to 100 (0 no effect, 100 complete control)
Method in brief: as §1

soybean (Glycine max) = conditions: for Plant response rating, Soybean: Postemergence, scale 0 to 100 (0 no effect, 100 complete control)
Method in brief: as §1

[11] = system: velvetleaf (Abutilon theophrasti); conditions: for Plant response rating, Velvetleaf: Postemergence, scale 0 to 100 (0 no effect, 100 complete control)
Method in brief: as §1

[12] = system: wheat (Triticum aestivum); conditions: for Plant response rating, Wheat: Postemergence, scale 0 to 100 (0 no effect, 100 complete control)
Method in brief: as §1

wild oat (Avena fatua) = system: wild oat (Avena fatua)
Method in brief: as §1

[13] = system: woolly cupgrass (Eriochloa villosa)
Method in brief: as §1

[14] = system: yellow nutsedge (Cyperus esculentus)
Method in brief: as §1

[15] = 62 g ai/ha, postemergence, 0 is no effect, 100 is complete control, 13 to 15 days
[16] = 31 g ai/ha, postemergence, scale 0 to 100, 0 is no effect, 100 is complete control
[17] = Postemergence, 125 g ai/ha, scale 0 to 100 (0 no effect, 100 complete control)
[18] = Postemergence, 250 g ai/ha, scale 0 to 100 (0 no effect, 100 complete control)

SMILES: O=C1CCCC(O)=C1C(=O)c1cnc(-c2ccsc2)n(C2CCCCC2)c1=O [Compound 99]
- Ryegrass, Italian plant response rating (0 to 100 scale) [1, 15]: 0
- Plant response rating, Ryegrass, Italian ([1]; 125 g ai/ha): 20
- Plant response rating, Ryegrass, Italian ([1]; 250 g ai/ha): 20
- Surinam Grass plant response rating (0 to 100 scale) [2, 15]: 70
- Plant response rating, Surinam Grass ([2]; 125 g ai/ha): 75
- Plant response rating, Surinam Grass ([2]; 250 g ai/ha): 80
- Plant response rating, Blackgrass [3, 16]: 0
- Blackgrass plant response rating (0 to 100 scale) [3, 15]: 0
- Plant response rating, Blackgrass [3, 17]: 5
- Plant response rating, Blackgrass [3, 18]: 15
- Plant response rating, Corn (corn (Zea mays); [16]): 40
- Corn plant response rating (0 to 100 scale) (corn (Zea mays); [15]): 65
- Plant response rating, Corn (corn (Zea mays); [17]): 65
- Plant response rating, Corn (corn (Zea mays); [18]): 80
- Plant response rating, Bromegrass, Downy [4, 16]: 5
- Bromegrass, Downy plant response rating (0 to 100 scale) [4, 15]: 5
- Plant response rating, Bromegrass, Downy [4, 17]: 25
- Plant response rating, Bromegrass, Downy [4, 18]: 25
- Plant response rating, Goosegrass [5, 16]: 75
- Goosegrass plant response rating (0 to 100 scale) [5, 15]: 75
- Plant response rating, Goosegrass [5, 17]: 75
- Plant response rating, Goosegrass [5, 18]: 80
- Plant response rating, Johnsongrass [6, 16]: 70
- Johnsongrass plant response rating (0 to 100 scale) [6, 15]: 75
- Plant response rating, Johnsongrass [6, 17]: 80
- Plant response rating, Johnsongrass [6, 18]: 95
- Plant response rating, Kochia (kochia (Kochia scoparia); [16]): 80
- Kochia plant response rating (0 to 100 scale) (kochia (Kochia scoparia); [15]): 80
- Plant response rating, Kochia (kochia (Kochia scoparia); [17]): 100
- Plant response rating, Kochia (kochia (Kochia scoparia); [18]): 100
- Plant response rating, Lambsquarters [7, 16]: 98
- Lambsquarters plant response rating (0 to 100 scale) [7, 15]: 100
- Plant response rating, Lambsquarters [7, 17]: 100
- Plant response rating, Lambsquarters [7, 18]: 100
- Plant response rating, Crabgrass, Large [8, 16]: 85
- Crabgrass, Large plant response rating (0 to 100 scale) [8, 15]: 85
- Plant response rating, Crabgrass, Large [8, 17]: 95
- Plant response rating, Crabgrass, Large [8, 18]: 95
- Plant response rating, Pigweed [9, 16]: 100
- Pigweed plant response rating (0 to 100 scale) [9, 15]: 100
- Plant response rating, Pigweed [9, 17]: 100
- Plant response rating, Pigweed [9, 18]: 100
- Ragweed plant response rating (0 to 100 scale) [10, 15]: 80
- Plant response rating, Ragweed ([10]; 125 g ai/ha): 80
- Plant response rating, Ragweed ([10]; 250 g ai/ha): 95
- Soybean plant response rating (0 to 100 scale) (soybean (Glycine max); [15]): 100
- Plant response rating, Soybean (soybean (Glycine max); 125 g ai/ha): 100
- Plant response rating, Soybean (soybean (Glycine max); 250 g ai/ha): 100
- Velvetleaf plant response rating (0 to 100 scale) [11, 15]: 100
- Plant response rating, Velvetleaf ([11]; 125 g ai/ha): 100
- Plant response rating, Velvetleaf ([11]; 250 g ai/ha): 100
- Wheat plant response rating (0 to 100 scale) [12, 15]: 5
- Plant response rating, Wheat ([12]; 125 g ai/ha): 5
- Plant response rating, Wheat ([12]; 250 g ai/ha): 5
- Plant response rating, Oat, Wild (wild oat (Avena fatua); [16]): 10
- Oat, Wild plant response rating (0 to 100 scale) (wild oat (Avena fatua); [15]): 20
- Plant response rating, Oat, Wild (wild oat (Avena fatua); [17]): 40
- Plant response rating, Oat, Wild (wild oat (Avena fatua); [18]): 80
- Plant response rating, Cupgrass, Woolly [13, 16]: 70
- Cupgrass, Woolly plant response rating (0 to 100 scale) [13, 15]: 75
- Plant response rating, Cupgrass, Woolly [13, 17]: 80
- Plant response rating, Cupgrass, Woolly [13, 18]: 85
- Plant response rating, Nutsedge, Yellow [14, 16]: 45
- Nutsedge, Yellow plant response rating (0 to 100 scale) [14, 15]: 70
- Plant response rating, Nutsedge, Yellow [14, 17]: 70
- Plant response rating, Nutsedge, Yellow [14, 18]: 75
